According to US8044198B2, “Sirtuin modulating compounds” (Sirtris Pharmaceuticals, Inc., priority 2005, dated 2011):
pEC50: −log10 of the molar value.

Target: T1, SIRT1 (Homo sapiens, UniProt Q96EB6)
T1 sequence (Q96EB6 1-747): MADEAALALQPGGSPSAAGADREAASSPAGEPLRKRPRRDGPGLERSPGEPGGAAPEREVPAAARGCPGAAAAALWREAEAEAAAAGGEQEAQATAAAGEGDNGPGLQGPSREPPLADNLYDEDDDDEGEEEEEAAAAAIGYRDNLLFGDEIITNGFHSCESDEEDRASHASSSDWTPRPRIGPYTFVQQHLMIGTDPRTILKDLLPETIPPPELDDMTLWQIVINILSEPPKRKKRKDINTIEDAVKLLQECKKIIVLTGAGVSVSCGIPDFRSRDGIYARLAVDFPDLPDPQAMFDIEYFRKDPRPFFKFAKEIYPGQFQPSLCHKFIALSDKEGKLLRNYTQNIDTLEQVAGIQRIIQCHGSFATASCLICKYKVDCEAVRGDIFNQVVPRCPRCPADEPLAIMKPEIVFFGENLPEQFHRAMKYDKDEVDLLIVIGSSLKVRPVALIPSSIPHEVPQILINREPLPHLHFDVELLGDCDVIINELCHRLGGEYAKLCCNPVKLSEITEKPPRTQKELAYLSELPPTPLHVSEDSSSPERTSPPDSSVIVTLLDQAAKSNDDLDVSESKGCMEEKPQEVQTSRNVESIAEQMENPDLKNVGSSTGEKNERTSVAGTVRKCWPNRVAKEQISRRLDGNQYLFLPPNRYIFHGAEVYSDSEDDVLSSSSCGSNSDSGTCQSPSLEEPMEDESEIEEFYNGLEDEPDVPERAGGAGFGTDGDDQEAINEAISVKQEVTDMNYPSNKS
Test: SIRT1 mass spectrometry (MS) based deacetylation assay; for FOLD ACT. MS: test concentration or dose not given here
Format: biochemical
Conditions: for pEC50: SIRT1 activation, mass spectrometry assay, read-out: ED50 MS ASSAY

[1] = fold activation of SIRT1 as determined by MS
[2] = fold activation of SIRT1, mass spectrometry assay

Compound	pEC50	FOLD ACT. MS [1]	FOLD ACT. MS [2]
COc1cccc(C(=O)Nc2cccc(-c3nc4cccnc4s3)c2)c1 [Compound 212]	4.30 to 5.30	B (B (Fold Activation <250%))	
COc1cccc(C(=O)Nc2cccc(-c3nc4cccnc4s3)c2)c1OC [Compound 214]	4.30 to 5.30	B (B (Fold Activation <250%))	
COc1cc(C(=O)Nc2cccc(-c3nc4ncccn4c3C)c2)cc(OC)c1OC [Compound 219]	4.30 to 5.30		A (A (Fold activation >250%))
O=C(Nc1cccc(-c2nc3ccncc3s2)c1)c1ccco1 [Compound 221]	4.30 to 5.30		B (B (Fold Activation <250%))
O=C(Nc1cccc(-c2nc3ccncc3s2)c1)c1cccnc1Cl [Compound 222]	4.30 to 5.30		B (B (Fold Activation <250%))
Cc1cc(C(=O)Nc2cccc(-c3nc4ccncc4s3)c2)n(C(C)(C)C)n1 [Compound 228]	4.30 to 5.30		A (A (Fold activation >250%))
O=C(Nc1cccc(-c2nc3ccncc3s2)c1)c1cc(C(F)(F)F)ccc1C(F)(F)F [Compound 248]	4.30 to 5.30		B (B (Fold Activation <250%))
COC(=O)c1ccc(-n2cncn2)c(NC(=O)c2ccc(OC)c(OC)c2)c1 [Compound 258]	4.30 to 5.30		B (B (Fold Activation <250%))
COc1cc(C(=O)Nc2ccc(-c3nc4ccccc4[nH]3)cc2)cc(OC)c1OC [Compound 263]	4.30 to 5.30		B (B (Fold Activation <250%))
COc1ccc(C(=O)Nc2ccccc2-c2cn3ccccc3n2)c(OC)c1 [Compound 265]	4.30 to 5.30		B (B (Fold Activation <250%))
COc1ccc(C(=O)Nc2ccccc2-c2cn3cc(CN4CCNCC4)sc3n2)cc1OC [Compound 270]	4.30 to 5.30		A (A (Fold activation >250%))
COc1cc(C(=O)Nc2cccc(-c3nc4cnccc4s3)c2)cc(OC)c1OC [Compound 273]	4.30 to 5.30		A (A (Fold activation >250%))
CC(=O)Nc1ccc(S(=O)(=O)Nc2cccc(-c3nc4ccncc4s3)c2)cc1 [Compound 288]	4.30 to 5.30		B (B (Fold Activation <250%))
COc1ccc(S(=O)(=O)Nc2cccc(-c3nc4ccncc4s3)c2)cc1OC [Compound 289]	4.30 to 5.30		B (B (Fold Activation <250%))
COc1cc(C(=O)N(C)c2ccccc2-c2nc3ncccc3o2)cc(OC)c1OC [Compound 292, 3,4,5-Trimethoxy-N-methyl-N-(2-oxazolo[4,5-b]pyridin-2-yl-phenyl)-benzamide]	< 3.82		
COc1ccc(C(=O)Nc2ccc(-c3nc4ccccc4[nH]3)cc2)cc1OC [Compound 294]	> 5.30		B (B (Fold Activation <250%))

Compound	pEC50	FOLD ACT. MS [1]	FOLD ACT. MS [2]
COc1ccc(C(=O)Nc2cccc(-c3nc4cnccc4o3)c2)c(OC)c1 [Compound 296]	4.30 to 5.30		B (B (Fold Activation <250%))
COc1cc(OC)cc(C(=O)Nc2cccc(-c3nc4cnccc4o3)c2)c1 [Compound 297]	4.30 to 5.30		B (B (Fold Activation <250%))
COc1cc(C(=O)Nc2cccc(-c3nc4cnccc4o3)c2)cc(OC)c1OC [Compound 298]	4.30 to 5.30		B (B (Fold Activation <250%))
CN(C)c1ccc(C(=O)Nc2cccc(-c3nc4cnccc4o3)c2)cc1 [Compound 299]	4.30 to 5.30		B (B (Fold Activation <250%))
Cc1cc(C(=O)Nc2cccc(-c3nc4ccncc4s3)c2)no1 [Compound 304]	> 5.30		B (B (Fold Activation <250%))
O=C(Nc1cccc(-c2nc3ccncc3s2)c1)c1ccc(Oc2ccccc2)nc1 [Compound 306]	4.30 to 5.30		B (B (Fold Activation <250%))
O=C(Nc1cccc(-c2nc3ccncc3s2)c1)c1ccc2ccccc2n1 [Compound 307]	> 5.30		A (A (Fold activation >250%))
CN(C)c1cccc(C(=O)Nc2cccc(-c3nc4cnccc4o3)c2)c1 [Compound 311]	4.30 to 5.30		B (B (Fold Activation <250%))
COc1cc(C(=O)Nc2ccccc2-c2nc3ccccc3n2C)cc(OC)c1OC [Compound 313]	4.30 to 5.30		B (B (Fold Activation <250%))
COc1ccc(C(=O)Nc2ccccc2-c2nc3ccccc3n2C)cc1OC [Compound 314]	4.30 to 5.30		B (B (Fold Activation <250%))
COc1ccc(C(=O)Nc2ccccc2-c2nc3cnccc3s2)c(OC)c1 [Compound 317]	> 5.30		B (B (Fold Activation <250%))
COc1cc(OC)cc(C(=O)Nc2ccccc2-c2nc3cnccc3s2)c1 [Compound 318]	4.30 to 5.30		B (B (Fold Activation <250%))
COc1cc(C(=O)Nc2ccccc2-c2nc3cnccc3s2)cc(OC)c1OC [Compound 319]	> 5.30		B (B (Fold Activation <250%))
CN(C)c1ccc(C(=O)Nc2ccccc2-c2nc3cnccc3s2)cc1 [Compound 320]	> 5.30		B (B (Fold Activation <250%))
CN(C)c1cccc(C(=O)Nc2ccccc2-c2nc3cnccc3s2)c1 [Compound 321]	> 5.30		B (B (Fold Activation <250%))
COc1cc(OC)cc(C(=O)Nc2ccc(-c3nc4cnccc4s3)cc2)c1 [Compound 323]	4.30 to 5.30		B (B (Fold Activation <250%))

Now from value to compound:

pEC50	FOLD ACT. MS [1]	FOLD ACT. MS [2]	Compound
> 5.30	B (B (Fold Activation <250%))		COc1ccc(C(=O)Nc2cccc(-c3nc4cccnc4s3)c2)c(OC)c1 [Compound 213]
> 5.30	B (B (Fold Activation <250%))		COc1cc(OC)cc(C(=O)Nc2cccc(-c3nc4cccnc4s3)c2)c1 [Compound 215]
> 5.30	B (B (Fold Activation <250%))		COc1ccc(C(=O)Nc2cccc(-c3nc4cccnc4s3)c2)cc1 [Compound 216]
> 5.30	A (A (Fold activation >250%))		COc1cc(C(=O)Nc2cccc(-c3nc4cccnc4s3)c2)cc(OC)c1OC [Compound 217]
> 5.30		A (A (Fold activation >250%))	COc1cc(C(=O)Nc2cccc(-c3cn4cccnc4n3)c2)cc(OC)c1OC [Compound 218]
> 5.30		B (B (Fold Activation <250%))	O=C(Nc1cccc(-c2nc3ccncc3s2)c1)c1cccs1 [Compound 223]
> 5.30		B (B (Fold Activation <250%))	O=C(Nc1cccc(-c2nc3ccncc3s2)c1)c1ccc(-c2ccccc2)o1 [Compound 241]
> 5.30		B (B (Fold Activation <250%))	O=C(Nc1cccc(-c2nc3ccncc3s2)c1)c1ccccc1Oc1ccccc1 [Compound 245]
> 5.30		B (B (Fold Activation <250%))	Cn1nc(C(C)(C)C)cc1C(=O)Nc1cccc(-c2nc3ccncc3s2)c1 [Compound 246]
> 5.30		B (B (Fold Activation <250%))	COc1ccc(C(=O)Nc2ccccc2-c2cc3ccccc3[nH]2)cc1OC [Compound 254]
> 5.30		B (B (Fold Activation <250%))	COc1cc(C(=O)Nc2ccccc2-c2cc3ccccc3[nH]2)cc(OC)c1OC [Compound 255]
> 5.30		A (A (Fold activation >250%))	COc1cc(C(=O)Nc2cccc(-c3nc4ccccc4[nH]3)n2)cc(OC)c1OC [Compound 259]
> 5.30		A (A (Fold activation >250%))	COc1ccc(C(=O)Nc2cccc(-c3nc4ccccc4[nH]3)n2)cc1OC [Compound 260]
> 5.30		B (B (Fold Activation <250%))	COc1ccc(C(=O)Nc2ccc(-c3nc4ccccc4[nH]3)cc2)c(OC)c1 [Compound 262]
> 5.30		A (A (Fold activation >250%))	COc1ccc(C(=O)Nc2ccccc2-c2cn3ccccc3n2)cc1OC [Compound 266]
> 5.30		B (B (Fold Activation <250%))	COc1cc(C(=O)Nc2ccccc2-c2cn3ccccc3n2)cc(OC)c1OC [Compound 267]
> 5.30		B (B (Fold Activation <250%))	CN(C)c1cccc(C(=O)Nc2ccccc2-c2cn3ccccc3n2)c1 [Compound 268]
> 5.30		A (A (Fold activation >250%))	COc1cc(C(=O)Nc2ccccc2-c2cn3cc(CN4CCNCC4)sc3n2)cc(OC)c1OC [Compound 271]
> 5.30		B (B (Fold Activation <250%))	COc1ccc(C(=O)Nc2cccc(-c3nc4cnccc4s3)c2)c(OC)c1 [Compound 272]
> 5.30		B (B (Fold Activation <250%))	COc1ccc(C(=O)Nc2ncccc2-c2nc3ccccc3[nH]2)cc1OC [Compound 276]
> 5.30		A (A (Fold activation >250%))	COc1cc(C(=O)Nc2ccccc2-c2nc3ccccc3[nH]2)cc(OC)c1OC [Compound 293]
